In patent publication US10433551B2, “3-pyridyloxyphenyldihydrouracil compound and use thereof” (Sumitomo Chemical Company, Limited, priority 2016, dated 2019):

Experiments:
Assay type in all cases: cell-based
[1] = test system: cucumber phytophthora blight fungi (Phytophthora capsici); assay: Test for controlling cucumber phytophthora blight fungi, growth in titer plate (absorbance 600 nm); settings: Test Example 1; 4.5 mg in 100 μL DMSO, 1 μL in 150 μL PDB medium with zoospores; 27° C., three days
Method: (§1) In the test examples 1 to 4, a non-treated area means an area in which a test was conducted in the same manner as each test example, except that dimethyl sulfoxide was dispensed in place of the present compound diluted with dimethyl sulfoxide.
Four point five (4.5) milligrams of the present compound was diluted with 100 μL of dimethyl sulfoxide. One (1) μL portion of the diluted liquid was dispensed into a titer plate (96 wells), and thereto was then dispensed 150 μL of a potato dextrose broth medium (PDB medium) containing zoospores of cucumber phytophthora blight fungi (Phytophthora capsici). This plate was cultured at 27° C. for three days, thereby allowing the cucumber phytophthora blight fungi to undergo proliferation, and the absorbance at 600 nm of each well of the titer plate was then measured to determine a degree of growth of the cucumber phytophthora blight fungi. The efficacy was calculated from the determined degree of growth by the below-mentioned “Equation 1”. As a result, the efficacy of the Present compound was 90% or more. Efficacy=100×(X−Y)/X “Equation 1” where X: Degree of fungal growth in non-treated area Y: Degree of fungal growth in treated area

[2] = test system: damping-off fungi (Pythium ultimum); assay: Test for controlling damping-off fungi, growth in titer plate (absorbance 600 nm); settings: 1 μL in 150 μL Czapek medium with mycelial suspension, 23° C., five days
Method: as §1
(§2) Four point five (4.5) milligrams of the present compound was diluted with 100 μL of dimethyl sulfoxide. One (1) μL portion of the diluted liquid was dispensed into a titer plate (96 wells), and thereto was then dispensed 150 μL of a potato dextrose broth medium (PDB medium) containing zoospores of cucumber phytophthora blight fungi (Phytophthora capsici). This plate was cultured at 27° C. for three days, thereby allowing the cucumber phytophthora blight fungi to undergo proliferation, and the absorbance at 600 nm of each well of the titer plate was then measured to determine a degree of growth of the cucumber phytophthora blight fungi. The efficacy was calculated from the determined degree of growth by the below-mentioned “Equation 1”. […]
Four point five (4.5) milligrams of the present compound was diluted with 100 μL of dimethyl sulfoxide. […] This plate was cultured at 23° C. for five days, thereby allowing the damping-off fungi to undergo proliferation, and the absorbance at 600 nm of each well of the titer plate was then measured to determine a degree of growth of the damping-off fungi. […]

[3] = test system: barley scald fungi (Rhynchosporium secalis); assay: Test for controlling barley scald fungi, growth in titer plate (absorbance 600 nm); settings: Test Example 4; 4.5 mg in 100 μL DMSO, 1 μL in 150 μL PDB medium with spores; 18° C., seven days
Method: as §1, §2
Four point five (4.5) milligrams of the present compound was diluted with 100 μL of dimethyl sulfoxide. […] This plate was cultured at 18° C. for seven days, thereby allowing the barley scald fungi to undergo proliferation, and the absorbance at 600 nm of each well of the titer plate was then measured to determine a degree of growth of the barley scald fungi. […]

Measured: efficacy

CCOC(=O)COc1ncccc1Oc1cc(N2C(=O)CC(O)(C(F)(F)F)NC2=O)c(F)cc1Cl (stereo not shown) [Present compound]
≥ 90%: [1] | [2]; Test Example 2, 4.5 mg in 100 μL DMSO | [2]; Test Example 3, 1.12 mg in 100 μL DMSO | [3]
